# Tests used:
# MYC:MAX interaction = MYC:MAX interaction (Homo sapiens, UniProt P01106); assay: co-immunoprecipitation of endogenous MYC and MAX; assay type: cell-based; details: 5 μM, MCF7 cells
# Protocol: FIG. 1: MYCMI-7 (Compound Example 1) inhibits the MYC:MAX interaction in cells, bind MYC in vitro, and blocks MYC function. A) Molecular structure of MYCMI-7. B-E) split Gaussia luciferase (GLuc) assay. MYC or MYCN and MAX Gluc constructs were co-transfected into HeLa cells together with a firefly luciferase vector. 24 hours post transfection cells were treated with compounds, and after another 17-24 hours cells were harvested and both GLuc and firefly luciferase activities were measured. The mean of three different experiments is shown. Treatment with: B) 5 μM of MYCMI-7, 64 μM 10058-F4 or 5 μM JQ1, respectively, C) 6.5 μM MYCMI-7 on cells expressing MYC:MAX GLuc vs. GCN4:GCN4 GLuc, D) 5 μM MYCMI-7 and 5 μM ellipticine. E) 5 μM MYCMI-7 for various time points. F) in situ proximity ligation assay (isPLA). […] G) Quantification of isPLA dots. […] J) MYC target gene ODC1 expression after treatment with 5 μM MYCMI-7, quantified by qPCR. […] L) Recombinant MYC bHLHZip protein domain immobilized onto a CM5 chip was subjected to various concentrations of MYCMI-7 and the complex of MYCbHLHZip-MYCMI-7 was measured as response units by SPR. […]
# For western blot equal amounts of proteins ([…]) were separated on a 4-12% SDS-PAGE gel. Proteins were transferred to Immobilion-P membrane (Millipore) and detected by immunostaining and chemoluminescence (Immobilion western HRP substrate; Millipore). […]
# [1] = test system: association of MYC with the ODC1 gene promoter; assay: chromatin immunoprecipitation (ChIP) of MYC at ODC1 promoter; assay type: cell-based; details: 5 μM
# Protocol: FIG. 1: MYCMI-7 (Compound Example 1) inhibits the MYC:MAX interaction in cells, bind MYC in vitro, and blocks MYC function. A) Molecular structure of MYCMI-7. B-E) split Gaussia luciferase (GLuc) assay. MYC or MYCN and MAX Gluc constructs were co-transfected into HeLa cells together with a firefly luciferase vector. 24 hours post transfection cells were treated with compounds, and after another 17-24 hours cells were harvested and both GLuc and firefly luciferase activities were measured. The mean of three different experiments is shown. Treatment with: B) 5 μM of MYCMI-7, 64 μM 10058-F4 or 5 μM JQ1, respectively, C) 6.5 μM MYCMI-7 on cells expressing MYC:MAX GLuc vs. GCN4:GCN4 GLuc, D) 5 μM MYCMI-7 and 5 μM ellipticine. E) 5 μM MYCMI-7 for various time points. F) in situ proximity ligation assay (isPLA). […] MYC:GAL4 was used as negative control in the isPLA assay. G) Quantification of isPLA dots. (H) Co-immunoprecipitation (co-IP) of endogenous MYC and MAX proteins from MCF7 cells after treatment with 5 μM MYCMI-7 at various times. IP=immunoprecipitation; W=western blot. I) Chromatin immunoprecipitation (ChIP) of MYC at the ODC1 target gene promoter after treatment of cells with 5 μM MYCMI-7 for 6 hours. J) MYC target gene ODC1 expression after treatment with 5 μM MYCMI-7, quantified by qPCR. K) ChIP of MYC at the ODC promoter in MCF7 cells after 5 μM MYCMI-7 treatment for indicated time points. L) Recombinant MYC bHLHZip protein domain immobilized onto a CM5 chip was subjected to various concentrations of MYCMI-7 and the complex of MYCbHLHZip-MYCMI-7 was measured as response units by SPR. The sensogram was produced by subtracting the blank response.
# For western blot equal amounts of proteins ([…]) were separated on a 4-12% SDS-PAGE gel. Proteins were transferred to Immobilion-P membrane (Millipore) and detected by immunostaining and chemoluminescence (Immobilion western HRP substrate; Millipore). For immunoprecipitations 500-1000 μg of protein was used. […] Briefly, cells were crosslinked with 1% formaldehyde on ice for 6 minutes. […]
# [2] = test system: MYC+RAS-transformed rat embryonic fibroblasts; assay: MYC+RAS transformation of REFs (foci, colonies in semi-solid medium); assay type: cell-based
# Protocol: For anchorage-independent growth assay, cells were suspended in 250 μl 0.35% SeaPlaque agarose (InVitro) and seeded into 24 well plates which had previously been coated with a bottom layer of 250 μl 0.7% agarose. After 16 days, the colonies were stained with 100 μg/ml MTT (Sigma) overnight and colonies were counted. For foci formation assays, 3×10^4 REFs were seeded into 6 well plates. The following day the cells were transfected with the indicated plasmids (0.3 μg of each, a total of 0.6 μg per well). After another 24 hours compounds were added. The medium was changed every 2-3 days. When the cells had grown into confluency, medium containing 4% serum was added. After 14 days the number of foci was scored.
# in vivo = details: mouse, plasma, ip, 6.25 mg/kg
# Protocol: Blood and brains were collected from three to four mice per group at 0, 1, 2, 4 and 24 hours following injection of 6.25 mg/kg ToM. Plasma samples were extracted using protein precipitation. Brain samples were extracted by homogenization in acetonitrile:DMSO, 95:5 using a gentleMACS Dissociater and gentleMACS™ M Tubes. The protein in the mouse plasma samples was removed by protein precipitation with acetonitrile containing the internal standard. After protein precipitation the study samples were centrifuged, and the resulting supernatant was analyzed. The acetonitrile:DMSO from the brain sample homogenates were spiked with the internal standard and then analyzed. All samples were analyzed by first separating them by reversed phase gradient LC and subsequently detecting them using positive electrospray ionization and multiple reaction monitoring (MRM).
# First, we performed a pharmacokinetic study of the behavior of the molecule in mice.
# Sequence of MYC:MAX interaction (P01106 16-454): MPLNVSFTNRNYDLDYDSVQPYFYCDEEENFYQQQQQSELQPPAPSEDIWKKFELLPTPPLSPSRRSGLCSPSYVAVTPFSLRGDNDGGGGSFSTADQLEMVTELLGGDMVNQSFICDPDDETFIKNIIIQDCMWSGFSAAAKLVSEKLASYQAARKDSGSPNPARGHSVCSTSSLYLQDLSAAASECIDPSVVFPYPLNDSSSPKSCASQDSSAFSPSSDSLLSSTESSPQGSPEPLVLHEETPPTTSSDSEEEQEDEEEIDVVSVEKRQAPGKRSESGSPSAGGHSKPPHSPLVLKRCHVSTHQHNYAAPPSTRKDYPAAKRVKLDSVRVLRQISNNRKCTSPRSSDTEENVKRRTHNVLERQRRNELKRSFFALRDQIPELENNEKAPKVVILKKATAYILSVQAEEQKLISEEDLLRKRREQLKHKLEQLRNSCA
compound,measurement,setting,value
"CCN(CC)CC[n+]1ccc2c(C)c3[nH]c4ccccc4c3c(C)c2c1 [MYCMI-7, 2-(5,11-Dimethyl-6H-25-pyrido[4,3-b]carbazol-2-yl)-N,N-diethylethanamine bromide]",MYC:MAX interaction by co-IP,MYC:MAX interaction; 1 hour after treatment,decreased
same,MYC:MAX interaction by co-IP,MYC:MAX interaction; 4 hours,reduced drastically
same,time after which reduction of MYC association with ODC1 promoter starts,[1],2 h
same,time from which MYC association with ODC1 promoter reaches a minimal level,[1],4 h
same,association of MYC with the ODC1 gene promoter (ChIP),[1]; breast cancer cells,reduced
same,formation of transformed foci and colonies in semi-solid medium,[2],strongly inhibited
same,half-life,in vivo,1.5 h

# From US20250122193A1, “NOVEL PYRIDOCARBAZOLIUM COMPOUNDS AND MEDICAL USES THEREOF” (MyCural Therapeutics, priority 2021, published 2025)
